In assay [1] the test system is Fusarium graminearum. The format is cell-based.
For assay [2], the system named is Colletotrichum graminicola. The format is cell-based. The following applies: 13 ppm.
Another assay concerns Fusarium verticilloides. The format is cell-based. The following applies: 3.25 ppm.
Another assay relates to Aspergillus niger. In kind it is cell-based.
Assay [3] relates to Asian soybean rust (Phakopsora pachirhizi). In kind it is cell-based. The following applies: 10 ppm.
In assay [4] the test system is Colletotrichum graminicola. In kind it is cell-based.
The test system of assay [5] is Colletotrichum graminicola. The experiment in a line: Transgenic corn leaf sheath bioassay, lesion area, C. graminicola. The following applies: in vivo.
Assay [6] concerns Fusarium graminearum. In kind it is cell-based. The following applies: for inhibition of growth of F. graminearum, more than NaD1: 0.825 ppm; for IC50: read-out: IC50 against Fusarium graminearum (Fgr).
Assay [7] deals with Cryptococcus neoformans (C1065). In kind it is cell-based. The following applies: 13 ppm.
A further assay has as its system C. gattii. In kind it is cell-based, Cryptococcus gattii.
A further assay concerns C. neoformans (C2067). The format is cell-based, Cryptococcus neoformans. The following applies: 6.5 ppm.
The subject of assay [8] is Fusarium graminearum. The following applies: in vivo.

Several values for one entry are separate records, joined by “and”; a condition that tells them apart may be missing. Equal entries are not always repeated. Where two headings read alike, the source gives them in different places. Ends that are not written are not given here.

With “HXP4: NaD2 Loop 1B (HRFKGP) in NaD1 backbone, SEQ ID NO:39 (RECKTESHRFKGPCITKPPCRKACISEKFTDGHCSKILRRCLCTKPC; ends and bridges not checked; cysteine pairing not given here)”, the “synergistic effect with protease inhibitors against Fusarium graminearum” value in the assay on Fusarium graminearum [1] is recorded as “greater synergistic effect with protease inhibitors than NaD1”. Also, the “inhibition of growth of C. graminicola, more than NaD1” value in assay [2] is listed as 61.3%. The “inhibition of growth of F. verticilloides, more than NaD1” value in the assay with Fusarium verticilloides was determined as 40.9%. The “activity expressed as percent of NaD1, A. niger” value in the assay with Aspergillus niger (13 ppm) is reported as “greater than 112%”. Moreover, the “inhibition of growth of A. niger, more than NaD1” value with Aspergillus niger (13 ppm) is listed as 20.6%; with Aspergillus niger (26 ppm) it was “at least 10%”; in the assay on Aspergillus niger (53 ppm), “at least 10%”. The “inhibition of appresorium formation, more than NaD1” value in assay [3] (24 hours) amounted to 65%. In addition, the “inhibition of germination of Asian soybean rust, more than NaD1” value in [3] (24 hours) stood at 62%. In addition, the “inhibition of formation of post-appresorium structures, more than NaD1” value in assay [3] (48 hours) turned out to be 59%. In addition, in assay [4], the “synergy with protease inhibitors against Colletotrichum graminicola” value is listed as “synergistic with protease inhibitors”. For the same molecule, in assay [5], the “Percent inhibition relative of empty vector control (reduction in lesion area), Cgr” value was determined as 26%. In addition, in the assay on Fusarium graminearum [6], the “inhibition of growth of F. graminearum, more than NaD1” value stood at 41.7%. Besides, in assay [7], the “activity as percent of the activity of NaD1, C. neoformans (C1065)” value is on record as “more than 596%”. The “inhibition of growth of Cryptococcus neoformans (C1065)” value in assay [7] is “completely inhibited”. For the same molecule, the figures for the “inhibition of growth of C. gatti, more than NaD1” value in the assay with C. gattii (6.5 ppm) and in the assay with C. gattii (13 ppm) were 38% and 10%, respectively. Also, in the assay with C. neoformans (C2067), the “inhibition of growth of C. neoformans (C2067)” value is “more than 80%”.

For orientation: IC50 means the concentration that inhibits the measured activity by half. Take “HXP107: NaD2 Loop 1B in TPP3 backbone, SEQ ID NO:85 (QQICKAPSHRFKGPCFMDSSCRKYCIKEKFTGGHCSKLQRKCLCTKPC; Synthetic construct TPP3 backbone with NaD2 Loop 1B)”: the IC50 in the assay on Fusarium graminearum [6] worked out at 500 nM.

With “TPP3: Class II solanaceous defensin (Solanum lycopersicum), SEQ ID NO:5, parent protein of HXP107 (QQICKAPSQTFPGLCFMDSSCRKYCIKEKFTGGHCSKLQRKCLCTKPC; Synthetic construct Amino acid sequence of portion of TPP3 (Solanum lycopersicum) containing Loop 1B) [reference compound]”, the IC50 in the assay with Fusarium graminearum [6] was determined as 200 nM.

In the case of “HXP35: PSD1 Loop 1B (DTYRGV) in NaD1 backbone, SEQ ID NO:41 (RECKTESDTYRGVCITKPPCRKACISEKFTDGHCSKILRRCLCTKPC; ends and bridges not checked; cysteine pairing not given here)”, in assay [2], the “inhibition of growth of C. graminicola, more than NaD1” value is reported as 83.2%. Also, the “inhibition of growth of F. verticilloides, more than NaD1” value with Fusarium verticilloides was found to be 5.1%. Moreover, the “inhibition of growth of F. graminearum, more than NaD1” value in the assay with Fusarium graminearum [6] is on record as 34.5%.

As to “HXP34: Zea2 Loop 1B (QHHSFP) in NaD1 backbone, SEQ ID NO:40 (RECKTESQHHSFPCITKPPCRKACISEKFTDGHCSKILRRCLCTKPC; ends and bridges not checked; cysteine pairing not given here)”, the “inhibition of growth of C. graminicola, more than NaD1” value in assay [2] was determined as 21.8%. Besides, the “inhibition of growth of F. verticilloides, more than NaD1” value with Fusarium verticilloides is 29.4%. Also, in the assay on Fusarium graminearum [6], the “inhibition of growth of F. graminearum, more than NaD1” value amounted to 14.6%.

B1: NaPin1A: Nicotiana alata type I proteinase inhibitor (protein)
chain: QSGCPGVTKERWPELLGTPAKFAMQIIQKENPKLTNVQTILNGRPVTEDLRCNRVRLFVNVLDFVVQTPQVG
modifications: Synthetic construct Amino acid sequence of NaPin1A
Take B1: in assay [4], the “Ee, expected effect from the additive response (Limpel's formula)” value stood at 11.8 percent inhibition and the “Io, percent inhibition observed” value worked out at 69.3 percent inhibition.

B2: CI-1B: barley type-I inhibitor, recombinant (protein)
chain: MRSMEGSVPKYPEPTEGSIGASGAKRSWPEVVGMSAEKAKEIILRDKPDAQIEVIPVDAMVPLDFNPNRIFILVAVARTPTVG
modifications: Synthetic construct Amino acid sequence of CI-1B
For the molecule B2, the “Ee, expected effect from the additive response (Limpel's formula)” value in the assay with Fusarium graminearum [1] is 12.1 percent inhibition and 17.1 percent inhibition.

B3: HXP4 + HvCPI6: barley cystatin HvCPI6 and modified defensin HXP4 co-expressed from one construct in corn, SEQ ID NO:83 (protein)
chain: MANKHLSLSLFLVLLGLSASLASGATSALGRRGVLLGGWSPVKDVNDPHVQELGGWAVAQHASLAKDGLLFRRVTRGEQQVVSGMNYRLFVVAADGSGKRVTYLAQIYEHWSRTRKLTSFKPAAGGEEKKNRECKTESNTFPGICITKPPCRKACISEKFTDGHCSKILRRCLCTKPCVFDEKMTKTGAEILAEEAKTLAAALLEEEIMDN
modifications: Synthetic construct Amino acid sequence of HvCPI6-L-HXP4-CTPP
On to B3, for which the “Percent inhibition relative of empty vector control (reduction in lesion area), Fgr” value in the assay on Fusarium graminearum [8] is 45%.

Values taken from patent US10174339B2 (priority 2011, dated 2019).
